Laboratory results taken from US20260055083A1, “APOL1 INHIBITORS AND METHODS OF USE” (Maze Therapeutics, Inc., priority 2022, published 2026).

Tests used:
APOL1 G2 [1] = target: T1, APOL1 G2 (Homo sapiens, UniProt O14791, DEL388-389); assay: APOL1 G2 FLIPR calcium influx assay (HEK T-REx/GCaMP6f/APOL1 G2 K6.3 cells); assay type: cell-based; conditions: HEK293 clone expressing GCaMP6f, doxycycline-induced APOL1 G2; prevention of calcium influx; geometric mean of at least 2 assay runs
T1 construct: expressed in transfected cells; host or cells: HEK293/T-REx APOL1 G2 clone #2, doxycycline-inducible
T1 sequence (O14791 with tags, fused parts or gaps DEL388-389): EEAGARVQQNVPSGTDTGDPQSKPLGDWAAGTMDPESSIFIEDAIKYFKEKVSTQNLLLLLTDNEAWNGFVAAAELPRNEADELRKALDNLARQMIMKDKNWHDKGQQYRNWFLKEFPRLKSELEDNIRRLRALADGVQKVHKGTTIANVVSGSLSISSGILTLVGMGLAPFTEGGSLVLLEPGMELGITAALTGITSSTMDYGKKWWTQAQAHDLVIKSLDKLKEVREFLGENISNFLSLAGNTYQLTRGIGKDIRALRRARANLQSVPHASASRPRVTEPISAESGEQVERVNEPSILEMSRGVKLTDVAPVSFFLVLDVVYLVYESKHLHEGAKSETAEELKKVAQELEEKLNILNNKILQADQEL
How it was run: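 HEK293 clone stably expressing GCaMP6f, APOL1 G2 induced with doxycycline for 6 h; compounds (duplicate 8-point dose response) preincubated 10 min at room temperature in Ca2+-free Tyrode's buffer, pH 7.4. Ca2+ added to 5 mM final, influx read on FLIPR; AC50 is geometric mean of ≥2 runs.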

APOL1 G2 [2] = target: T1, APOL1 G2; assay: APOL1 G2 HEK293 rescue of cell death caused by overexpression of APOL1 (CellTiter-Glo); assay type: cell-based; conditions: HEK293/T-REx APOL1 G2 clone #2, doxycycline induction, 17 hours, CellTiter-Glo luminescence; reversal of cell death; geometric mean of at least 2 assay runs
How it was run: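 Doxycycline (6 ng/mL)-induced HEK293/T-REx APOL1 G2 clone seeded at 5,000 cells/well with compound in duplicate 8-point 3-fold series (0.5% DMSO), 17 h at 37 °C. CellTiter-Glo luminescence; EC50 from four-parameter logistic fit, geometric mean of ≥2 runs.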

SMILES: C[C@@H]1C[C@H](COc2ccc(S(C)(=O)=O)nn2)CN1CCc1cccc(C#N)c1 [Compound 26, 3-{2-[(2R,4S)-4-{[(6-methanesulfonylpyridazin-3-yl)oxy]methyl}-2-methylpyrrolidin-1-yl]ethyl}benzonitrile]
- AC50 (APOL1 G2 [1]): 210 nM
- EC50 (APOL1 G2 [2]): 276 nM

SMILES: CN=S(C)(=O)c1ccc(OC[C@@H]2CN(CCc3cccc(C#N)c3)C[C@H]2C)cn1 (single isomer, unassigned) [Compound 73]
- AC50 (APOL1 G2 [1]): 351 nM
- EC50 (APOL1 G2 [2]): 375 nM

SMILES: CC(Cc1cc(Cl)cc(C#N)c1)N1C[C@@H](COc2ccc(S(C)(=O)=O)cc2)C[C@H]1C (single isomer, unassigned) [Compound 10, 3-chloro-5-[(2S or 2R)-2-[(2R,4S)-4-[(4-methanesulfonylphenoxy)methyl]-2-methylpyrrolidin-1-yl]propyl]benzonitrile]
- AC50 (APOL1 G2 [1]): 1020 nM
- EC50 (APOL1 G2 [2]): 744 nM

SMILES: C[C@@H]1C[C@H](COc2ccc(S(=O)(=O)CCS(C)(=O)=O)cc2)CN1C1CCc2ccc(Cl)cc2C1 (single isomer, unassigned) [Compound 50, (2R,4S)-1-[(2S or 2R)-7-chloro-1,2,3,4-tetrahydronaphthalen-2-yl]-4-{[4-(2-methanesulfonylethanesulfonyl)phenoxy]methyl}-2-methylpyrrolidine]
- AC50 (APOL1 G2 [1]): 1070 nM
- EC50 (APOL1 G2 [2]): 346 nM

SMILES: CC(=O)N(C)CCS(=O)(=O)c1ccc(OC[C@H]2C[C@@H](C)N(CCc3cccc(C#N)c3)C2)cc1 [Compound 67, N-[2-(4-{[(3S,5R)-1-[2-(3-cyanophenyl)ethyl]-5-methylpyrrolidin-3-yl]methoxy}benzenesulfonyl)ethyl]-N-methylacetamide]
- AC50 (APOL1 G2 [1]): 337 nM
- EC50 (APOL1 G2 [2]): 50.3 nM

SMILES: C[C@@H]1C[C@H](COc2ccc(S(C)(=O)=O)cc2)CN1C1Cc2ccc(Cl)cc2C1 (single isomer, unassigned) [Compound 4, (2R,4S)-1-[(2S or 2R)-5-chloro-2,3-dihydro-1H-inden-2-yl]-4-[(4-methanesulfonylphenoxy)methyl]-2-methylpyrrolidine]
- AC50 (APOL1 G2 [1]): 1140 nM
- EC50 (APOL1 G2 [2]): 2350 nM

SMILES: C[C@@H]1C[C@H](COc2ccc(S(=O)(=O)CCO)cc2)CN1C1CCc2ccc(Cl)cc2C1 (single isomer, unassigned) [Compound 63, 2-(4-{[(3S,5R)-1-[(2S or 2R)-7-chloro-1,2,3,4-tetrahydronaphthalen-2-yl]-5-methylpyrrolidin-3-yl]methoxy}benzenesulfonyl)ethan-1-ol]
- AC50 (APOL1 G2 [1]): 188 nM
- EC50 (APOL1 G2 [2]): 24.8 nM

SMILES: CS(=O)(=O)c1ccc(OC[C@@H]2CN(C(CO)Cc3cccc(Cl)c3)CCN2)cc1 (single isomer, unassigned) [Compound 118, (2R or 2S)-3-(3-chlorophenyl)-2-[(3S)-3-[(4-methanesulfonylphenoxy)methyl]piperazin-1-yl]propan-1-ol]
- AC50 (APOL1 G2 [1]): 1250 nM
- EC50 (APOL1 G2 [2]): > 10000 nM

SMILES: C[C@@H]1C[C@@H](COc2ccc(S(C)(=O)=O)cc2)CN1CCc1cccc(Cl)c1 [Compound 145, (2R,4R)-1-[2-(3-chlorophenyl)ethyl]-4-[(4-methanesulfonylphenoxy)methyl]-2-methylpyrrolidine]
- AC50 (APOL1 G2 [1]): 1130 nM
- EC50 (APOL1 G2 [2]): 1770 nM

SMILES: C[C@@H]1C[C@H](COc2ccc(S(=O)(=O)CCCS(C)(=O)=O)cc2)CN1C1CCc2ccc(Cl)cc2C1 (stereo partly drawn) [Compound 52, (2R,4S)-1-[7-chloro-1,2,3,4-tetrahydronaphthalen-2-yl]-4-{[4-(3-methanesulfonylpropanesulfonyl)phenoxy]methyl}-2-methylpyrrolidine]
- AC50 (APOL1 G2 [1]): 1020 nM
- EC50 (APOL1 G2 [2]): 86.9 nM

SMILES: C[C@@H]1CN(CC(O)c2cccc(C#N)c2)C[C@H]1COc1ccc(S(C)(=O)=O)nc1 (single isomer, unassigned) [Compound 106, 3-[(1R or 1S)-1-hydroxy-2-[(3S,4S)-3-{[(6-methanesulfonylpyridin-3-yl)oxy]methyl}-4-methylpyrrolidin-1-yl]ethyl]benzonitrile]
- AC50 (APOL1 G2 [1]): > 10000 nM
- EC50 (APOL1 G2 [2]): > 10000 nM

SMILES: CN=S(C)(=O)c1ccc(OC[C@H]2C[C@@H](C)N(C3CCc4ccc(C#N)cc4C3)C2)cc1 (single isomer, unassigned) [Compound 38, (7S or 7R)-7-[(2R,4S)-2-methyl-4-({4-[methyl(methylimino)oxo-λ^6-sulfanyl]phenoxy}methyl)pyrrolidin-1-yl]-5,6,7,8-tetrahydronaphthalene-2-carbonitrile]
- AC50 (APOL1 G2 [1]): 590 nM
- EC50 (APOL1 G2 [2]): 65 nM

SMILES: C[C@@H]1C[C@H](COc2ccc(S(C)(=O)=O)cc2)CN1C1CCc2c(C#N)cc(Cl)cc2C1 (single isomer, unassigned) [Compound 9, (6S or 6R)-3-chloro-6-[(2R,4S)-4-[(4-methanesulfonylphenoxy)methyl]-2-methylpyrrolidin-1-yl]-5,6,7,8-tetrahydronaphthalene-1-carbonitrile]
- AC50 (APOL1 G2 [1]): 1280 nM
- EC50 (APOL1 G2 [2]): 516 nM

SMILES: CC(C(O)c1cc(Cl)cc(C#N)c1)N1C[C@@H](COc2ccc(S(C)(=O)=O)cc2)[C@H](C)C1 (single isomer, unassigned) [Compound 101, 3-chloro-5-((1S,2R or 1R,2S)-1-hydroxy-2-((3S,4S)-3-methyl-4-((4-(methylsulfonyl)phenoxy)methyl)pyrrolidin-1-yl)propyl)benzonitrile]
- AC50 (APOL1 G2 [1]): 765 nM
- EC50 (APOL1 G2 [2]): > 10000 nM

SMILES: COC(=O)CCCS(=O)(=O)c1ccc(OC[C@@H]2CN(CCc3cc(Cl)cc(C#N)c3)C[C@H]2C)cc1 [Compound 80, methyl 4-(4-{[(3S,4S)-1-[2-(3-chloro-5-cyanophenyl)ethyl]-4-methylpyrrolidin-3-yl]methoxy}benzenesulfonyl)butanoate]
- AC50 (APOL1 G2 [1]): 404 nM
- EC50 (APOL1 G2 [2]): 202 nM

SMILES: CS(=O)(=O)c1ccc(OC[C@@H]2CN(CCc3cccc(Cl)c3)C[C@H]2CO)cc1 [Compound 21, [(3S,4S)-1-[2-(3-chlorophenyl)ethyl]-4-[(4-methanesulfonylphenoxy)methyl]pyrrolidin-3-yl]methanol]
- AC50 (APOL1 G2 [1]): 138 nM
- EC50 (APOL1 G2 [2]): 280 nM

SMILES: Cc1cc(OC[C@@H]2CN(CCc3cccc(C#N)c3)C[C@H]2C)ccc1S(C)(=O)=O [Compound 83, 3-{2-[(3S,4S)-3-[(4-methanesulfonyl-3-methylphenoxy)methyl]-4-methylpyrrolidin-1-yl]ethyl}benzonitrile]
- AC50 (APOL1 G2 [1]): 94.6 nM
- EC50 (APOL1 G2 [2]): 94.3 nM

SMILES: C[C@@H]1C[C@H](COc2ccc(S(=O)(=O)CCS(C)(=O)=O)cc2)CN1C1CCc2ccc(C#N)cc2C1 (single isomer, unassigned) [Compound 33, 7S or 7R)-7-[(2R,4S)-4-{[4-(2-methanesulfonylethanesulfonyl)phenoxy]methyl}-2-methylpyrrolidin-1-yl]-5,6,7,8-tetrahydronaphthalene-2-carbonitrile]
- AC50 (APOL1 G2 [1]): 662 nM
- EC50 (APOL1 G2 [2]): 133 nM

SMILES: C[C@@H]1C[C@H](COc2ccc(S(C)(=O)=O)cc2)CN1C1CCc2ccc(Cl)cc2C1 (single isomer, unassigned) [Compound 6, (2R,4S)-1-[(2R or 2S)-7-chloro-1,2,3,4-tetrahydronaphthalen-2-yl]-4-[(4-methanesulfonylphenoxy)methyl]-2-methylpyrrolidine]
- AC50 (APOL1 G2 [1]): 839 nM
- EC50 (APOL1 G2 [2]): 661 nM

SMILES: C[C@@H]1CN(CCc2cccc(C#N)c2)C[C@H]1COc1ccc(S(C)(=O)=NCCS(C)(=O)=O)cc1 (stereo partly drawn) [Compound 68, 3-{2-[(3S,4S)-3-[(4-{[(2-methanesulfonylethyl)imino](methyl)oxo-λ^6-sulfanyl}phenoxy)methyl]-4-methylpyrrolidin-1-yl]ethyl}benzonitrile]
- AC50 (APOL1 G2 [1]): 708 nM
- EC50 (APOL1 G2 [2]): 366 nM

SMILES: CS(=O)(=O)c1ccc(OC[C@H]2C[C@H]3CCCC(Cc4cc(Cl)cc(C#N)c4)N3C2)cc1 (single isomer, unassigned) [Compound 125, 3-{[(2S,5R or 5S,8aR)-2-[(4-methanesulfonylphenoxy)methyl]-octahydroindolizin-5-yl]methyl}-5-chlorobenzonitrile]
- AC50 (APOL1 G2 [1]): 2210 nM
- EC50 (APOL1 G2 [2]): 449 nM

SMILES: C[C@@H]1C[C@H](COc2ccc(S(=O)(=O)CCCS(C)(=O)=O)cc2)CN1C1CCc2c(C#N)cc(Cl)cc2C1 (stereo partly drawn) [Compound 43, 3-chloro-6-[(2R,4S)-4-{[4-(3-methanesulfonylpropanesulfonyl)phenoxy]methyl}-2-methylpyrrolidin-1-yl]-5,6,7,8-tetrahydronaphthalene-1-carbonitrile]
- AC50 (APOL1 G2 [1]): 1360 nM
- EC50 (APOL1 G2 [2]): 350 nM

SMILES: CS(=O)(=O)c1ccc(OC[C@@H]2CN(CCc3cc(Cl)cc(C#N)c3)CCN2)cc1C(F)(F)F [Compound 114, 3-chloro-5-{2-[(3S)-3-{[4-methanesulfonyl-3-(trifluoromethyl)phenoxy]methyl}piperazin-1-yl]ethyl}benzonitrile]
- AC50 (APOL1 G2 [1]): 868 nM
- EC50 (APOL1 G2 [2]): 295 nM

SMILES: CC(Cc1cc(Cl)cc(C#N)c1)N1C[C@@H](COc2ccc(S(C)(=O)=O)cc2)C[C@H]1C (single isomer, unassigned) [Compound 11, 3-chloro-5-[(2R or 2S)-2-[(2R,4S)-4-[(4-methanesulfonylphenoxy)methyl]-2-methylpyrrolidin-1-yl]propyl]benzonitrile]
- AC50 (APOL1 G2 [1]): 1130 nM
- EC50 (APOL1 G2 [2]): 137 nM
